In patent publication US5373014A, “Rapamycin oximes” (American Home Products Corporation, priority 1993, dated 1994):
Values joined by “and” are separate entries in the source; they are usually repeats but may differ in a detail not shown here. Equal values may be shown once. Read-outs that look alike come from different tables or passages of the source.

Key:
[1] = stability under physiological conditions (degradative hydrolysis in phosphate buffer); format: physicochemical
Procedure: The table below provides the […] in 0.1M phosphate buffer (pH 7.4) at 37° C.

[2] = test system: cells from the thymus of normal BALB/c mice (lymphocyte proliferation); assay: comitogen-induced thymocyte proliferation procedure (LAF); format: cell-based; settings: read-out: LAF IC50
Procedure: (§1) Immunosuppressive activity for representative compounds of this invention was evaluated in an in vitro standard pharmacological test procedure to measure lymphocyte proliferation (LAF) and in an in vivo standard pharmacological test procedure which evaluated the survival time of a pinch skin graft.
Briefly, cells from the thymus of normal BALB/c mice are cultured for 72 hours with PHA and IL-1 and pulsed with tritiated thymidine during the last six hours. […] Cells are harvested and incorporated radioactivity is determined. Inhibition of lymphoproliferation is assessed as percent change in counts per minute from nondrug treated controls. For each compound evaluated, rapamycin was also evaluated for the purpose of comparison. An IC50 was obtained for each test compound as well as for rapamycin. […] The results obtained are provided as an IC50.

[3] = test system: pinch skin graft from male BALB/c donors transplanted to male C3 H(H-2K) recipients; assay: survival time of pinch skin graft (allograft); format: in vivo, male C3 H(H-2K) recipients (mice); settings: 4 mg/kg, intraperitoneally or orally; untreated controls rejected within 6-7 days
Procedure: as §1
Representative compounds of this invention were also evaluated in an in vivo test procedure designed to determine the survival time of pinch skin graft from male BALB/c donors transplanted to male C3 H(H-2K) recipients. The method is adapted from Billingham R. E. and Medawar P. B., J. Exp. Biol. 28:385-402, (1951 ). Briefly, a pinch skin graft from the donor was grafted on the dorsum of the recipient as a allograft, and an isograft was used as control in the same region. The recipients were treated with either varying concentrations of test compounds intraperitoneally or orally. Rapamycin was used as a test control. Untreated recipients serve as rejection control. The graft was monitored daily and observations were recorded until the graft became dry and formed a blackened scab. This was considered as the rejection day. The mean graft survival time (number of days±S.D.) of the drug treatment group was compared with the control group. […] Results are expressed as the mean survival time in days. Untreated (control) pinch skin grafts are usually rejected within 6-7 days. […]

[4] = 72 h culture with PHA and IL-1, tritiated thymidine during last six hours
[5] = Mus musculus, Lymphocyte, 72 h culture with PHA and IL-1, tritiated thymidine during last six hours

SMILES | half-life ([1]; 0.1m phosphate buffer, pH 7.4) | IC50 [2, 5] | further results
CO/N=C1/C[C@@H]([C@H](C)C[C@@H]2CC[C@@H](O)[C@H](OC)C2)OC(=O)[C@@H]2CCCCN2C(=O)C(=O)[C@]2(O)O[C@@H](CC[C@H]2C)C[C@H](OC)/C(C)=C/C=C/C=C/[C@@H](C)C[C@@H](C)C(=O)[C@H](OC)[C@H](O)/C(C)=C/[C@H]1C [Rapamycin (Z)-27-(O-methoxime), rapamycin (Z)-27-(O-methoxime)] | 156 h |  | 
CO/N=C1\C[C@@H]([C@H](C)C[C@@H]2CC[C@@H](OC(=O)Oc3ccc([N+](=O)[O-])cc3)[C@H](OC)C2)OC(=O)[C@@H]2CCCCN2C(=O)C(=O)[C@]2(O)O[C@@H](CC[C@H]2C)C[C@H](OC)/C(C)=C/C=C/C=C/[C@@H](C)C[C@@H](C)C(=O)[C@H](OC)[C@H](O)/C(C)=C/[C@H]1C [Example 9, Rapamycin (E)-27-(O-methoxime), 42-ester with (4-nitrophenoxy)carbonic acid] |  | 0.077 µM | IC50 [2, 4]: 0.047 µM
CO[C@H]1C[C@@H]2CC[C@@H](C)[C@@](O)(O2)C(=O)C(=O)N2CCCC[C@H]2C(=O)O[C@H]([C@H](C)C[C@@H]2CC[C@@H](OC(=O)CC[C@H](NC(=O)OC(C)(C)C)C(=O)OC(C)(C)C)[C@H](OC)C2)CC(=O)[C@H](C)/C=C(\C)[C@@H](O)[C@@H](OC)C(=O)[C@H](C)C[C@H](C)/C=C/C=C/C=C/1C [rapamycin 42-ester with (S)-5-tertbutoxy-4-tertbutoxycarbonylamino-5-oxo-pentanoic acid, reference compound] | 24 h |  | 
CO/N=C1/C[C@@H]([C@H](C)C[C@@H]2CC[C@@H](OC(=O)CC[C@H](NC(=O)OC(C)(C)C)C(=O)OC(C)(C)C)[C@H](OC)C2)OC(=O)[C@@H]2CCCCN2C(=O)C(=O)[C@]2(O)O[C@@H](CC[C@H]2C)C[C@H](OC)/C(C)=C/C=C/C=C/[C@@H](C)C[C@@H](C)C(=O)[C@H](OC)[C@H](O)/C(C)=C/[C@H]1C [Example 10, Rapamycin (Z)-27-(O-methoxime), 42-ester with (S)-5-tertbutoxy-4-tertbutoxycarbonylamino-5-oxo-pentanoic acid] | 264 h | 0.0041 µM | Skin Graft mean survival time (days ± SD) [3]: 10.0 ± 0.2 days and 11.2 ± 0.8 days; stability toward degradation compared with rapamycin or the corresponding oxime or ester alone ([1]; pH 7.4): significantly more stable toward degradation than rapamycin, or the corresponding oxime or ester alone
CO[C@H]1C[C@@H]2CC[C@@H](C)[C@@](O)(O2)C(=O)C(=O)N2CCCC[C@H]2C(=O)O[C@H]([C@H](C)C[C@@H]2CC[C@@H](O)[C@H](OC)C2)CC(=O)[C@H](C)/C=C(\C)[C@@H](O)[C@@H](OC)C(=O)[C@H](C)C[C@H](C)/C=C/C=C/C=C/1C [Rapamycin] |  |  | Skin Graft mean survival time (days ± SD) [3]: 12.0 ± 1.7 days; IC50 ([2]; Mus musculus, Lymphocyte): 0.0004 to 0.0051 µM; half-life ([1]; 0.1M phosphate buffer (pH 7.4) at 37° C., read-out: Half Life (converted)): 13 h
CO[C@H]1C[C@@H]2CC[C@@H](C)[C@@](O)(O2)C(=O)C(=O)N2CCCC[C@H]2C(=O)O[C@H]([C@H](C)C[C@@H]2CC[C@@H](OC(=O)CC[C@H](NC(=O)OC(C)(C)C)C(=O)OC(C)(C)C)[C@H](OC)C2)C/C(=N/OCC#N)[C@H](C)/C=C(\C)[C@@H](O)[C@@H](OC)C(=O)[C@H](C)C[C@H](C)/C=C/C=C/C=C/1C [Example 3, Rapamycin (Z)-27-O-(cyanomethyl)-oxime, 42-ester with N-(tert-butoxycarbonyl)-α-O-(tert-butyl)-L-glutamic Acid] |  | 0.432 µM | 
CO/N=C1/C[C@@H]([C@H](C)C[C@@H]2CC[C@@H](OC(=O)COCC(=O)OCc3ccccc3)[C@H](OC)C2)OC(=O)[C@@H]2CCCCN2C(=O)C(=O)[C@]2(O)O[C@@H](CC[C@H]2C)C[C@H](OC)/C(C)=C/C=C/C=C/[C@@H](C)C[C@@H](C)C(=O)[C@H](OC)[C@H](O)/C(C)=C/[C@H]1C [Example 8, Rapamycin (Z)-27-(O-methoxime), 42-ester with (5-benzyloxycarbonylmethoxy) acetic acid] |  | 0.421 µM | 
CO/N=C1\C[C@@H]([C@H](C)C[C@@H]2CC[C@@H](OC(=O)CC[C@H](NC(=O)OC(C)(C)C)C(=O)OC(C)(C)C)[C@H](OC)C2)OC(=O)[C@@H]2CCCCN2C(=O)C(=O)[C@]2(O)O[C@@H](CC[C@H]2C)C[C@H](OC)/C(C)=C/C=C/C=C/[C@@H](C)C[C@@H](C)C(=O)[C@H](OC)[C@H](O)/C(C)=C/[C@H]1C [Example 11, Rapamycin (E)-27-(O-methoxime), 42-ester with (S)-5-tertbutoxy-4-tertbutoxycarbonylamino-5-oxo-pentanoic acid] |  | 0.372 µM | IC50 [2, 4]: 0.321 µM
CO/N=C1/C[C@@H]([C@H](C)C[C@@H]2CC[C@@H](OC(=O)CN(C)C)[C@H](OC)C2)OC(=O)[C@@H]2CCCCN2C(=O)C(=O)[C@]2(O)O[C@@H](CC[C@H]2C)C[C@H](OC)/C(C)=C/C=C/C=C/[C@@H](C)C[C@@H](C)C(=O)[C@H](OC)[C@H](O)/C(C)=C/[C@H]1C [Example 7, Rapamycin (Z)-27-(O-methoxime), 42-ester with 2-N,N-dimethylglycine] |  | 0.291 µM | 
CO/N=C1\C[C@@H]([C@H](C)C[C@@H]2CC[C@@H](O)[C@H](OC)C2)OC(=O)[C@@H]2CCCCN2C(=O)C(=O)[C@]2(O)O[C@@H](CC[C@H]2C)C[C@H](OC)/C(C)=C/C=C/C=C/[C@@H](C)C[C@@H](C)C(=O)[C@H](OC)[C@H](O)/C(C)=C/[C@H]1C [Rapamycin (E)-27-(O-methoxime), rapamycin (E)-27-(O-methoxime)] | 59 h |  | 
